Measurements from ChEMBL document CHEMBL5500372, “Novel natural osthole-inspired amphiphiles as membrane targeting antibacterials against methicillin-resistant Staphylococcus aureus (MRSA)” (Eur J Med Chem, 2024).
Calls of active or inactive are those of the source. The calls are words filed in the database; no cut-off is given here.

Columns and labels:
[1] = Toxicity in female KM mouse assessed as effect on liver at 20 mg/kg, sc measured after 24 hrs by H and E staining based analysis; format: organism-based; conditions: in vivo
[2] = Toxicity in female KM mouse skin abscess model infected with methicillin-resistant Staphylococcus aureus clinical isolate 16 assessed as histological abnormalities in heart at 5 to 10 mg/kg, sc measured after 24 hrs by H and E staining based analysis; format: organism-based; conditions: in vivo, dose 5-10 mg/kg
[3] = Toxicity in female KM mouse skin abscess model infected with methicillin-resistant Staphylococcus aureus clinical isolate 16 assessed as effect on kidney at 5 to 10 mg/kg, sc measured after 24 hrs by H and E staining based analysis; format: organism-based; conditions: in vivo, dose 5-10 mg/kg
[4] = Toxicity in female KM mouse skin abscess model infected with methicillin-resistant Staphylococcus aureus clinical isolate 16 assessed as histological abnormalities in spleen at 5 to 10 mg/kg, sc measured after 24 hrs by H and E staining based analysis; format: organism-based; conditions: in vivo, dose 5-10 mg/kg
[5] = Toxicity in female KM mouse assessed as effect on lung at 20 mg/kg, sc measured after 24 hrs by H and E staining based analysis; format: organism-based; conditions: in vivo
Escherichia coli = test: Antibacterial activity against Escherichia coli ATCC 25922 measured after 18 hrs by CLSI based broth microdilution method; format: functional
[6] = Toxicity in female KM mouse assessed as effect on histopathological abnormalities in back skin at 20 mg/kg, sc measured after 24 hrs by H and E staining based analysis; format: organism-based; conditions: in vivo
Cell membrane [7] = test: Disruption of cell membrane in methicillin-resistant Staphylococcus aureus clinical isolate 16 assessed as increase in DNA leakage incubated for 4 hrs by microspectrophotometric analysis; format: cell membranes; conditions: dose <= 8.0 µg/ml
Staphylococcus aureus [8] = test: Antibacterial activity against methicillin-resistant Staphylococcus aureus clinical isolate 16 infected in female KM mouse skin abscess model assessed as smooth skin on back at 10 mg/kg, sc measured after 24 hrs; format: functional, organism-based
[9] = Toxicity in female KM mouse skin abscess model infected with methicillin-resistant Staphylococcus aureus clinical isolate 16 assessed as histological abnormalities in liver at 5 to 10 mg/kg, sc measured after 24 hrs by H and E staining based analysis; format: organism-based; conditions: in vivo, dose 5-10 mg/kg
[10] = Toxicity in female KM mouse assessed as adverse reaction in skin at 20 mg/kg, sc measured after 24 hrs; format: organism-based; conditions: in vivo
Staphylococcus aureus [11] = test: Antibacterial activity against methicillin-resistant Staphylococcus aureus clinical isolate 16 infected in female KM mouse skin abscess model assessed as effect on abscess in back skin at 5 mg/kg, sc measured after 24 hrs; format: functional, organism-based
Cell membrane [12] = test: Induction of cell membrane disruption in methicillin-resistant Staphylococcus aureus clinical isolate 16 assessed as dead cells (Q1 region) at 4 ug/ml measured after 2 hrs by SYTO-9 and PI staining based flow cytometry analysis (reference value: 0%); format: cell membranes; conditions: dose 4.0 µg/ml
Staphylococcus aureus [13] = test: Antibacterial activity against methicillin-resistant Staphylococcus aureus clinical isolate 16 measured after 18 hrs by CLSI based broth microdilution method; format: functional
Cell membrane [14] = test: Induction of cell membrane disruption in methicillin-resistant Staphylococcus aureus clinical isolate 16 assessed as intact cells (Q3 region) at 16 ug/ml measured after 2 hrs by SYTO-9 and PI staining based flow cytometry analysis (reference value: 96.0%); format: cell membranes; conditions: dose 16.0 µg/ml
Cell membrane [15] = test: Induction of cytoplasmic membrane depolarization in methicillin-resistant Staphylococcus aureus clinical isolate 16 assessed as increase in fluorescence intensity at 8 to 32 time MIC measured for 10 mins by DiSC3-5 dye based fluorescence method
[16] = Toxicity in female KM mouse assessed as effect on histopathological abnormalities in lungs at 20 mg/kg, sc measured after 24 hrs by H and E staining based analysis; format: organism-based; conditions: in vivo
Cell membrane [17] = test: Induction of cell membrane disruption in methicillin-resistant Staphylococcus aureus clinical isolate 16 assessed as intact cells (Q3 region) at 4 ug/ml measured after 2 hrs by SYTO-9 and PI staining based flow cytometry analysis (reference value: 96.0%); format: cell membranes; conditions: dose 4.0 µg/ml
Cell membrane [18] = test: Induction of cytoplasmic membrane permeabilization in methicillin-resistant Staphylococcus aureus clinical isolate 16 assessed as fold increase in fluorescence intensity at 32 time MIC measured after 35 mins by SYTOX green dye based fluorescence analysis
[19] = Toxicity in female KM mouse skin abscess model infected with methicillin-resistant Staphylococcus aureus clinical isolate 16 assessed as histological abnormalities in kidney at 5 to 10 mg/kg, sc measured after 24 hrs by H and E staining based analysis; format: organism-based; conditions: in vivo, dose 5-10 mg/kg
[20] = Toxicity in female KM mouse assessed as animal death at 80 mg/kg, sc measured after 24 hrs; format: organism-based; conditions: in vivo
Cell membrane [21] = test: Induction of cell membrane disruption in methicillin-resistant Staphylococcus aureus clinical isolate 16 assessed as intact cells (Q3 region) at 32 ug/ml measured after 2 hrs by SYTO-9 and PI staining based flow cytometry analysis (reference value: 96.0%); format: cell membranes; conditions: dose 32.0 µg/ml
Staphylococcus aureus [22] = test: Antibacterial activity against methicillin-resistant Staphylococcus aureus clinical isolate 20 measured after 18 hrs by CLSI based broth microdilution method; format: functional
[23] = Toxicity in female KM mouse assessed as redness in skin at 40 to 80 mg/kg, sc measured after 24 hrs; format: organism-based; conditions: in vivo, dose 40-80 mg/kg
Staphylococcus aureus [24] = test: Antibacterial activity against methicillin-resistant Staphylococcus aureus clinical isolate 12 measured after 18 hrs by CLSI based broth microdilution method; format: functional
[25] = Toxicity in female KM mouse assessed as survival at 80 mg/kg, sc measured after 24 hrs; format: organism-based; conditions: in vivo
[26] = Toxicity in female KM mouse assessed as effect on red blood cell at upto 20 mg/kg, sc measured after 24 hrs; format: organism-based; conditions: in vivo
[27] = Toxicity in female KM mouse assessed as effect on UREA at upto 20 mg/kg, sc measured after 24 hrs by biochemical test; format: organism-based; conditions: in vivo
Staphylococcus aureus [28] = test: Antibacterial activity against methicillin-resistant Staphylococcus aureus clinical isolate 16 measured after 18 hrs in presence of peptidoglycan by checkerboard broth dilution method; format: functional, organism-based
Cell membrane [29] = test: Disruption of cell membrane in methicillin-resistant Staphylococcus aureus clinical isolate 16 assessed as appearance of uneven surface at 16 ug/ml measured after 4 hrs by SEM analysis; format: cell membranes; conditions: dose 16.0 µg/ml
[30] = Stability in 50% sheep blood plasma measured after 6 hrs; format: ADME, cell-free, Ovis aries
Staphylococcus aureus [31] = test: Antibacterial activity against Staphylococcus aureus ATCC 29213 measured after 18 hrs by CLSI based broth microdilution method; format: functional
Staphylococcus aureus [32] = test: Antibacterial activity against methicillin-resistant Staphylococcus aureus clinical isolate 16 measured after 18 hrs in presence of phosphatidylglycerol by checkerboard broth dilution method; format: functional
[33] = Cytotoxicity in human L02 cells assessed as survival rate at 16 ug/ml measured after 24 hrs by CCK-8 method relative to control; format: toxicity, cell-based; conditions: at 16 µg/mL, read-out: Survival
[34] = Toxicity in female KM mouse assessed as effect on heart at 20 mg/kg, sc measured after 24 hrs by H and E staining based analysis; format: organism-based; conditions: in vivo
[35] = Toxicity in female KM mouse assessed as effect on kidney at 20 mg/kg, sc measured after 24 hrs by H and E staining based analysis; format: organism-based; conditions: in vivo
Cell membrane [36] = test: Disruption of cell membrane in methicillin-resistant Staphylococcus aureus clinical isolate 16 assessed as increase in blue fluorescence at 8 times MIC measured after 4 hrs by DAPI and PI staining based laser confocal microscopy based analysis; format: cell membranes

## CCCCCCNC(=O)C[N+](C)(C)CCCCCOc1ccc2ccc(=O)oc2c1CC=C(C)C.[Br-]
[1]
  Activity: Non-Toxic
[2]
  Activity: Non-Toxic
[3]
  Activity: Non-Toxic
[4]
  Activity: Non-Toxic
[5]
  Activity: Non-Toxic
Escherichia coli
  MIC: 32 µg/mL
[6]
  Activity: Non-Toxic
Cell membrane [7]
  Activity: Dose-Dependent Effect
Staphylococcus aureus [8]
  Activity: Active
[9]
  Activity: Non-Toxic
[10]
  Activity: Non-Toxic
Staphylococcus aureus [11]
  Activity: Active
Cell membrane [12]
  Activity: 0.12%
Staphylococcus aureus [13]
  MIC: 1 µg/mL
Cell membrane [14]
  Activity: 1.1%
Cell membrane [15]
  Activity: Active
[16]
  Activity: Non-Toxic
Cell membrane [17]
  Activity: 76.9%
Cell membrane [18]
  fold change (FC): 50
[19]
  Activity: Non-Toxic
[20]
  Activity: Non-Toxic
Cell membrane [21]
  Activity: 0.05%
Staphylococcus aureus [22]
  MIC: 2 µg/mL
[23]
  Activity: Toxic
Staphylococcus aureus [24]
  MIC: 2 µg/mL
[25]
  Activity: Non-Toxic
[26]
  Activity: Non-Toxic
[27]
  Activity: Non-Toxic
Staphylococcus aureus [28]
  Activity: Active
Cell membrane [29]
  Activity: Active
[30]
  Stability: Stable
Staphylococcus aureus [31]
  MIC: 1 µg/mL
Staphylococcus aureus [32]
  MIC: 64 µg/mL
[33]
  viability at 24 h, 16 ug/ml: 60%
[34]
  Activity: Non-Toxic
[35]
  Activity: Non-Toxic
Cell membrane [36]
  Activity: Active
